Data from article PMC4604124, “In Vitro Characterization of the Pharmacological Properties of the Anti-Cancer Chelator, Bp4eT, and Its Phase I Metabolites” (PLoS ONE, 2015).
Where “and” joins values, the source holds several entries; their conditions need not be identical. Equal values may be shown once.

What was measured:
[1] = tested on: A549 human lung adenocarcinoma cells; test: MTT cytotoxicity assay, A549 cells; type: cell-based; conditions: for IC50: MTT
Description: For cytotoxicity experiments, cancer cells were seeded at a density of 5,000 (MCF-7), 10,000 (HL-60) or 2,000 cells/well (HCT116 and A549) in 96-well plates (TPP) for 24 h/37°C prior to the addition of examined agents. The non-cancerous cells, 3T3 and H9c2 cells, were cultured for 24 h/37°C in 96-well plates at a density of 10,000 cells/well, the medium was then changed to serum- and pyruvate-free DMEM (Sigma-Aldrich) and incubated with the cells for another 24 h/37°C. The cytotoxic effects of Bp4eT and its metabolites were studied at different concentrations after a 72 h/37°C incubation. In order to aid the dissolution of the lipophilic ligands, 0.1% dimethyl sulfoxide (v/v) (DMSO; Sigma-Aldrich) was present in the culture medium of all groups. At this concentration, DMSO had no effect on cellular proliferation or viability.
The viability of cells were determined using an MTT assay (Sigma-Aldrich) according to previously established methods. The optical density of soluble MTT was measured at λ = 570 nm, subtracting the λ = 690 nm background using a Tecan Infinite 200M plate reader (Tecan Group, Männedorf, Switzerland). The viability or proliferation of experimental groups was expressed as a percentage of the untreated controls (100%).
SigmaStat for Windows 3.5 (Systat Software, San Jose, CA, USA) statistical software package was utilized to analyze results. The data are expressed as the mean ± SD of a given number of experiments. Statistical significance was determined using a one-way ANOVA with a Bonferroni post-hoc test or Student’s t-test. The results were considered to be statistically significant when p < 0.05. The IC50 values were calculated using CalcuSyn 2.0 software (Biosoft, Cambridge, UK). Cell cycle analysis was evaluated using MultiCycle AV Software (Phoenix Flow Systems, San Diego, CA, USA).

[2] = Ascorbate oxidation assay (redox activity of iron complexes); type: biochemical;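 for %Fe 30min (ascorbate oxidation, Fe = 100%), průměr (mean): IBE 1 means iron-binding equivalents giving fully coordinated iron-chelator complexes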;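 for %Fe 30min (ascorbate oxidation, Fe = 100%), single replicates: IBE 1 means iron-binding equivalents giving fully coordinated iron-chelator complexes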;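 for %Fe 30min: ascorbate oxidation as % of the Fe control (Fe 100%): IBE 0.1 means iron-binding equivalents with iron in excess over chelator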
[3] = sheet IBE 1, time 10, replicates

Q: Which “Therapeutic index, IC50 non-cancerous cells / IC50 neoplastic cells” value ([1]; 3T3/A549) does the source give for `CCNC(=O)NN=C(c1ccccc1)c1ccccn1` [E-Bp4eS, 2-benzoylpyridine 4-ethylsemicarbazone] here?
A: >4.0

Q: What about the IC50 ([1]; A549, 72 h/37°C, mean ± SD, n ≥ 4) of the same compound?
A: 248 ± 28.4 µM

Q: What about the “MTT, relative to control (0 = 100)” value ([1]; A549, 2 000 b/j, 1 μM, průměr (mean), sheet E-Bp4eS) of the same compound?
A: 93.23

Q: And the “MTT, relative to control (0 = 100)” value ([1]; A549, 2 000 b/j, 1 μM, single experiment (date), sheet E-Bp4eS)?
A: 97.4794 and 93.8067 and 89.4519 and 90.2593 and 95.1529

Q: What about the “MTT, relative to control (0 = 100)” value ([1]; A549, 2 000 b/j, 3 μM, průměr (mean), sheet E-Bp4eS) of the same compound?
A: 94.11

Q: And the “MTT, relative to control (0 = 100)” value ([1]; A549, 2 000 b/j, 3 μM, single experiment (date), sheet E-Bp4eS)?
A: 94.6678 and 89.857 and 93.9888 and 97.9391

Q: What about the “MTT, relative to control (0 = 100)” value ([1]; A549, 2 000 b/j, 10 μM, průměr (mean), sheet E-Bp4eS) of the same compound?
A: 92.21

Q: And the “MTT, relative to control (0 = 100)” value ([1]; A549, 2 000 b/j, 10 μM, single experiment (date), sheet E-Bp4eS)?
A: 87.4036 and 92.1017 and 93.2476 and 93.9742 and 94.3384

Q: And the “MTT, relative to control (0 = 100)” value ([1]; A549, 2 000 b/j, 30 μM, průměr (mean), sheet E-Bp4eS)?
A: 90.64

Q: And the “MTT, relative to control (0 = 100)” value ([1]; A549, 2 000 b/j, 30 μM, single experiment (date), sheet E-Bp4eS)?
A: 90.1965 and 95.4707 and 85.9691 and 88.5685 and 92.9924

Q: And the “MTT, relative to control (0 = 100)” value ([1]; A549, 2 000 b/j, 100 μM, průměr (mean), sheet E-Bp4eS)?
A: 73.00

Q: And the “MTT, relative to control (0 = 100)” value ([1]; A549, 2 000 b/j, 100 μM, single experiment (date), sheet E-Bp4eS)?
A: 74.3256 and 77.7533 and 70.4536 and 74.7606 and 67.6889

Q: What about the “MTT, relative to control (0 = 100)” value ([1]; A549, 2 000 b/j, 300 μM, průměr (mean), sheet E-Bp4eS) of the same compound?
A: 38.58

Q: And the “MTT, relative to control (0 = 100)” value ([1]; A549, 2 000 b/j, 300 μM, single experiment (date), sheet E-Bp4eS)?
A: 29.8381 and 26.5697 and 49.6192 and 42.8896 and 44.0078

Q: What about the “MTT, relative to control (0 = 100)” value ([1]; A549, 2 000 b/j, 1000 μM, průměr (mean), sheet E-Bp4eS) of the same compound?
A: 20.68

Q: What about the “MTT, relative to control (0 = 100)” value ([1]; A549, 2 000 b/j, 1000 μM, single experiment (date), sheet E-Bp4eS) of the same compound?
A: 19.2379 and 16.653 and 18.6303 and 21.7843 and 27.0728

Q: What about the IC50 ([1]; A549, 2 000 b/j, single experiment (date), sheet E-Bp4eS) of the same compound?
A: 234 µM and 239 µM and 259 µM and 291 µM

Q: And the “Therapeutic index, IC50 non-cancerous cells / IC50 neoplastic cells” value ([1]; H9c2/A549)?
A: 3.6

Q: And the IC50 ([1]; Homo sapiens, A549, A549, 2 000 b/j, single experiment (date), sheet E-Bp4eS)?
A: 217 µM

Q: And the “%Fe 30min: ascorbate oxidation as % of the Fe control (Fe 100%)” value ([2]; IBE 0.1, 30 min, mean (průměr))?
A: 110.6%

Q: What about the “Change of absorbance after subtraction of time 0 (odečet 0)” value (shortened to “Change of absorbance”) ([2]; IBE 0.1, time 10, mean (průměr)) of the same compound?
A: -0.03606

Q: And the “Change of absorbance” value ([2]; IBE 0.1, time 20, mean (průměr))?
A: -0.07143

Q: What about the “Change of absorbance” value ([2]; IBE 0.1, time 30, mean (průměr)) of the same compound?
A: -0.1048

Q: What about the “Absorbance (ascorbate, λ = 265 nm)” value ([2]; IBE 0.1, čas 0 (time 0), mean (průměr)) of the same compound?
A: 0.8403

Q: And the “Absorbance (ascorbate, λ = 265 nm)” value ([2]; IBE 0.1, čas 10 (time 10), mean (průměr))?
A: 0.8042

Q: What about the “Absorbance (ascorbate, λ = 265 nm)” value ([2]; IBE 0.1, čas 20 (time 20), mean (průměr)) of the same compound?
A: 0.7689

Q: And the “Absorbance (ascorbate, λ = 265 nm)” value ([2]; IBE 0.1, čas 30 (time 30), mean (průměr))?
A: 0.7355

Q: What about the “Absorbance (ascorbate, λ = 265 nm)” value ([2]; IBE 0.1, čas 30 (time 30), single wells) of the same compound?
A: 0.7395 and 0.7451 and 0.7441 and 0.7317 and 0.7361 and 0.735 and 0.7279 and 0.7282

Q: What about the “%Fe 30min (ascorbate oxidation, Fe = 100%), průměr (mean)” value ([2]; sheet IBE 1, 30min, Fe 100%, mean) of the same compound?
A: 115.7%

Q: And the “%Fe 30min (ascorbate oxidation, Fe = 100%), single replicates” value ([2]; sheet IBE 1, 30min, Fe 100%, replicates)?
A: 118.6% and 122% and 108.4% and 125.1% and 134.4% and 115.2% and 110.6% and 115.1% and 91.71%

Q: What about the “raw reading at čas 0 (time 0), průměr (mean)” value ([2]; sheet IBE 1, time 0, mean of 9 readings) of the same compound?
A: 0.822

Q: What about the “raw reading at čas 0 (time 0), single replicates” value ([2]; sheet IBE 1, time 0, replicates of 2014-03-24 (two runs) and 2014-03-25) of the same compound?
A: 0.8574 and 0.8322 and 0.8144 and 0.8238 and 0.8106 and 0.8047 and 0.8172 and 0.7979 and 0.8393

Q: What about the “odečet 0 (reading minus time 0 reading) at čas 10, průměr (mean)” value ([2]; sheet IBE 1, time 10, mean) of the same compound?
A: -0.03765

Q: And the “raw reading at čas 10 (time 10), průměr (mean)” value ([2]; sheet IBE 1, time 10, mean of 9 readings)?
A: 0.7843

Q: What about the “odečet 0 (reading minus time 0 reading) at čas 10, single replicates” value [2, 3] of the same compound?
A: -0.03642 and -0.03472 and -0.03462 and -0.04217 and -0.04047 and -0.03637 and -0.03597 and -0.05027 and -0.02787

Q: What about the “raw reading at čas 10 (time 10), single replicates” value [2, 3] of the same compound?
A: 0.778 and 0.7891 and 0.776 and 0.7626 and 0.7768 and 0.7616 and 0.8033 and 0.8071 and 0.8043

Q: And the “odečet 0 (reading minus time 0 reading) at čas 20, průměr (mean)” value ([2]; sheet IBE 1, time 20, mean)?
A: -0.07141
